According to publication PMC8805583, “Discovery of Herbacetin as a Novel SGK1 Inhibitor to Alleviate Myocardial Hypertrophy” (Advanced Science, 2021):

Experiments:
[1] = tested on: SGK1(S422D)-transfected primary cardiomyocytes; assay: S422D SGK1-transfected primary cardiac myocytes (western blot, confocal microscopy); type: cell-based, rat
Description: Figure 5 HBT blocks induction of cardiac hypertrophic responses and the SGK1/FoxO1 signaling pathway. A) Cardiomyocytes were treated with 50 µmol PE in the presence or absence of Ext.R (50 µg mL^−1) or HBT (50 µmol) for 48 h. Cardiomyocytes were identified by cytoskeleton staining through the binding of phalloidin to F‐actin (green). Images were acquired using an ImageXpress Micro Confocal High‐Content Imaging System (Molecular Devices), with a 40 × PlanFluor objective. Relative cell area was quantified by the analysis module of […] High‐Content Image and Analysis Software (Molecular Devices). Control group (Ctrl), PE group, PE plus Ext.R group (Ext.R), and PE plus HBT group (HBT), n = 3 independent experiments, Scale bar, 50 µm. B,C) Quantification of relative ANP and BNP in cardiomyocytes treated with Ext.R or HBT, n = 3 independent experiments. D) Western blot analysis of related proteins in PE‐treated cardiomyocytes, n = 3–4 independent experiments. E) Co‐IP and western blot analysis of SGK1‐FoxO1 interaction in cardiomyocytes, n = 3 independent experiments. F) Western blot analysis of related proteins in nontransfected (control adenovirus) and in ^S422DSGK1‐transfected primary cardiac myocytes treated with DMSO as solvent control (^S422DSGK1‐transf. group) or HBT (50 µmol, ^S422DSGK1‐transf.+HBT group), n = 3 independent experiments. G) Confocal microscopy of nuclear translocation of FoxO1 in nontransfected (control adenovirus), ^S422DSGK1‐transfected cardiomyocytes treated with HBT (50 µmol) or DMSO as solvent control. Green signal represents FoxO1 and white arrow represents the translocation of FoxO1 to nuclei, n = 3 independent experiments, Scale bar, 25 µm. All data were analyzed using one‐way ANOVA and data were expressed as means ± SD, ##p < 0.01 versus Ctrl group, *p < 0.05, **p < 0.01 versus PE group or ^S422DSGK1‐transf. group.
In the present study, we studied HBT's effect on protein binding between SGK1 and FoxO1 by coimmunoprecipitation (Figure 5E). […] Nevertheless, as previously reported,^[ [30] ^] […] Supportively, after transfection with the SGK1(S422D) plasmid, we consistently detected increased cytoplasmic signal of FoxO1 compared to nontransfected cells in which the majority of FoxO1 signal was distributed in the nucleus.
SGK1 mutant plasmids and adenovirus were constructed by Vigene Bioscience. All the transfection assays were performed using Lipofectamine 2000 according to the manufacturer's protocol. Adenovirus (Ad‐^S422DSGK1) was diluted in DMEM and administered at a dose of 100 MOI in primary cardiomyocytes.

SGK1 = target: T1, SGK1 (Homo sapiens, UniProt O00141); assay: Cellular thermal shift assay in cell lysates; type: binding
T1 sequence (O00141 1-431): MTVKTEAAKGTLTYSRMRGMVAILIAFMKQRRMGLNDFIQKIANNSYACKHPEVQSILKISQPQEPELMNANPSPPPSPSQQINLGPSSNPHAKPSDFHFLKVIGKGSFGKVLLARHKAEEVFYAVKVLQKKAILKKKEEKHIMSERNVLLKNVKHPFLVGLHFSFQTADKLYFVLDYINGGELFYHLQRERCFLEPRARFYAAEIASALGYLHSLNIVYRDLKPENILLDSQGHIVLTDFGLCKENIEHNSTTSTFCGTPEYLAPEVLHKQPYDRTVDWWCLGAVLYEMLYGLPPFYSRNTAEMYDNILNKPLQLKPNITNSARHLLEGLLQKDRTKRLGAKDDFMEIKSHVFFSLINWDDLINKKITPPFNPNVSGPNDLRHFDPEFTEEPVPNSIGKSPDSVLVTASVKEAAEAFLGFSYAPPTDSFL
Text: To identify active compounds with SGK1 inhibitory activity from Ext.R, a novel mass‐spectrometry based kinase inhibitory assay was developed. A polypeptide sequence ([…], m/z: 618.6) derived from glycogen Synthase Kinase‐3(GSK3), a known substrate of SGK1, was optimized and synthesized. We subsequently used liquid chromatography coupled with mass spectrometry (LC/MS) to detect and quantify its phosphorylation level ([…](p)FAE, m/z:658.7) (Figure 3A).^[ [26] ^] Basal level SGK1 was supplemented to each well, and the peak area of phosphorylation was measured in the presence or absence of testing compounds. […] After investigating the major chemical constituents in Ext.R (Table S3, Supporting Information), a set of compounds in Ext.R were subsequently screened for their impacts on SGK1 activity. […] The direct interaction between HBT and SGK1 was further verified by temperature‐ and dose‐dependent cellular thermal shift assays (Figure 3E,F). We further performed a direct binding assay of HBT to SGK1 by KINOMEscan assay (Eurofins Discovery).
Figure 3 Mass spectrometry‐based kinase inhibitory assay for screening SGK1 inhibitor. A) Illustration of the mass spectrometry‐based assay for screening SGK1 inhibitors. […] G) Direct binding assay of HBT to SGK1 by KINOMEscan assay (Eurofins Discovery).

ISO mice = assay: ISO-induced cardiac hypertrophy in mice; type: in vivo
Description: Finally, we assessed the cardioprotective effect of HBT in mice infused with the hypertrophic agonist isoproterenol (ISO). Mice were challenged with ISO for 21 days via subcutaneous injection and then were administered with 10 mg kg^−1 of HBT once per day until the mice were sacrificed (Figure 7A).
For isoproterenol (ISO)‐mediated cardiac hypertrophy, mice were randomly divided into 3 groups, control group (Ctrl), ISO group and ISO plus HBT group (HBT), 5 mg kg^−1 day^−1 ISO was given for 21 days by subcutaneous injection. The control mice were treated with 1% DMSO‐vehicle. At the same time, male C57BL/6 mice in HBT group were intraperitoneally injected with 10 mg kg^−1 d^−1 HBT diluted with a solution containing 1% DMSO and 99% saline. Echocardiography was performed on conscious mice using a Vevo 2100 system. M‐mode images of the left ventricular short axis were captured. After echocardiography evaluation, the mice were anesthetized via intraperitoneal injection of 240 mg kg^−1 pentobarbital sodium and were euthanized by excising the heart rapidly.

Compound: O=c1c(O)c(-c2ccc(O)cc2)oc2c(O)c(O)cc(O)c12 [HBT, herbacetin]
- expression of STIM1 ([1]; HBT 50 µmol): moderately inhibited
- FoxO1 phosphorylation ([1]; SGK1(S422D) expression, HBT 50 µmol): reverse the alternation
- FoxO1 subcellular localization ([1]; SGK1(S422D) transfection, HBT 50 µmol, confocal microscopy): restrain FoxO1 in the nucleus
- level of Orai1 ([1]; constitutively expressed SGK1, HBT 50 µmol): significantly inhibited
- phosphorylation of NDRG1 ([1]; continuously-activated form of SGK1, HBT 50 μmol): reduce the phosphorylation
- thermal stability of SGK1, concentration-dependent cellular thermal shift assay (SGK1; 65 °C): increases the thermal stability of SGK1
- thermal stability of SGK1, temperature-dependent cellular thermal shift assay (SGK1; HBT 100 µmol): increases the thermal stability of SGK1
- toxicity (ISO mice; 10 mg kg−1 d−1 for 21 days): without causing any significant toxicity
- left ventricular ejection fraction (EF%) and fraction shortening (FS%) (ISO mice; ISO 5 mg kg−1 d−1 21 days, HBT 10 mg kg−1 d−1 intraperitoneally): increased
- decreased Bcl-2 and MnSOD levels (ISO mice; ISO mice): almost completely reversed
- serum NT-proBNP (ISO mice; ISO mice, ELISA): decreased level
- heart weight/tibial length (HW/TL) (ISO mice; ISO mice, HBT 10 mg kg−1): reduce the HW/TL level
- left ventricular volume (LV Vol;d and LV Vol;s) (ISO mice; ISO mice, HBT 10 mg kg−1): decreased
- accumulation of collagen fibrosis (ISO mice; ISO mice, Masson's staining): reduced
- expression of p-SGK1, α-SMA and Col-3 (ISO mice; ISO mice, western blot): reduced expression
- FoxO1 phosphorylation, STIM1 and Orai1 protein expression in heart tissue (ISO mice; ISO mouse model): significantly decreased
- level of HO-1 and Nrf2 in heart tissue (ISO mice; ISO mouse model): increased
